“Also recorded” adds a separate entry of the source.
Columns and labels:
[1] = Blood levels of Δ^9-THC by LC-MS; conditions: mouse, whole blood
Experimental: (§1) Whether inhalation exposure to Δ^9 THC aerosol would elicit pharmacological effects indicative of cannabinoid activity in mice (Compton, D. R., Rice, K. C., De Costa, B. R., Rzdan, R. K., Melvin, L. S., Johnson, M. R., Martin, B. R., Cannabinoid structure-activity relationships: Correlation of receptor binding and in vivo activities, J Pharmacol Exp Ther, 265:218-226 (1993); Little et al., 1988) was determined.
(§2) Blood and brain levels of Δ^9-THC were determined as follows. Extraction and LC-MS quantification of Δ^9-THC from whole blood and brain tissue were modified from Lichtman, A. H., Poklis, J. L., Wilson, D. M., Martin, B. R., The pharmacological activity of inhalation exposure to marijuana smoke in mice, Drug Alc Depend, 63:107-116 (2001). Particularly, THC and 2H^3-THC were extracted from brain material which contains a high degree of lipids. Acetonitrile was added to the pelletized solids and stored in a freezer overnight to separate the acetonitrile layer (which contained THC/2H^3-THC) from the aqueous layers. The following day the acetonitrile layer was removed. In the Lichtman et al., study, 2 ml of 9:1 NaOH was added and the sample was vortexed. Four ml of 9:1 hexane:ethyl acetate was added and the sample was vortexed and spun […] for 30 minutes. The vials were then centrifuged at 4,000 rpm […] for 10 minutes. The organic layer was removed and evaporated. Upon drying, a derivatizing agent was added and the sample was vortexed, and each sample analyzed by GC/MS. In the present experimentation, the acetonitrile was instead evaporated to dryness under nitrogen. The material was then resolubilized in 0.1 ml methanol. LC-MS identification was used to quantify Δ^9-THC/2H^3-THC in blood and brain matrices. […] Fifty ng of ^2H3-THC (Radian Corporation, Austin, Tex.) was added to the blood sample, brain homogenate, and calibrators as an internal standard. Following an equilibration period, 2.5 ml of cold acetonitrile (HPLC grade, Fisher Scientific, Raleigh, N.C.) was added drop-wise while vortexing. The samples were then centrifuged (Precision Vari-Hi-Speed Centricone, Precision Scientific Co., Chicago, Ill.) at 2500 rpm for 15 minutes to pelletize solids, then stored in the freezer (−20° C.) overnight, allowing the acetonitrile layer to separate from the aqueous layers. The acetonitrile layer was then removed and evaporated to dryness under nitrogen. The Δ^9-THC/^2H3-THC was then resolubilized in 0.1 ml methanol (HPLC grade, Fisher Scientific).
(§3) LC-MS identification was used for quantification of Δ^9-THC and ^2H3-THC in blood and brain matrices using an 85:15 methanol: 1% glacial acetic acid (0.1% formic acid) mobile phase. A guard column was used inline with the standard reverse phase C18 column. The mass spectrometer was run in APCI+mode. Ions analyzed in single ion monitoring mode were 315 for Δ^9-THC and 318 for ^2H3-THC. A calibration curve was constructed for each assay based on linear regression using the peak-area ratios of Δ^9-THC to ^2H3-THC of the extracted calibration samples.

[2] = MDI fine particle dose (Andersen Cascade Impactor); assay type: physicochemical; conditions: HFA 134a-ethanol MDI; 40° C., 82% relative humidity, 28 days
Experimental: A Δ^9 THC MDI was formulated and the physical properties of the aerosolized drug characterized. The mass of drug metered by the metering valve was determined following a single actuation (metered dose). The mass of drug delivered (emitted dose) was determined. The mass of particles with an aerodynamic diameter less than 4.7 μm was determined.
Appearance, metered dose reproducibility, emitted dose and particle size distribution of the Δ^9 THC MDI were investigated, before and after storage in an environment maintained at 40° C. and 82% relative humidity for a 28 day period. The mass of drug metered by the metering valve (metered dose, n=10) was determined by collecting single actuations directly from the valve in a puff absorber, using the methods of Byron, 1994.
THC was analyzed by LC-UV detection at 280 nm using a 75:25 acetonitrile: 1% acetic acid mobile phase for Δ^9-THC detection. A standard reverse phase C18 column was used.

[3] = test system: Spasticity related to multiple sclerosis; conditions: oral 5 to 15 mg THC; 8 patients, single blind; cited from earlier work
[4] = test system: Spasticity related to multiple sclerosis; conditions: 5 or 10 mg THC; 9 patients; cited from earlier work
in vivo = conditions: for concentration at 20 min: brain
Experimental: as §1, §2, §3

[5] = test system: Nausea and emesis due to Cancer chemotherapy; conditions: oral 10 mg/m^2 THC; 84 patients; cited from earlier work
intra ocular pressure = conditions: intravenous THC 0.022 or 0.044 mg/kg; ten subjects with normal intra ocular pressure; cited from earlier work
[6] = test system: Pain due to advanced cancer; conditions: oral 5, 10, 15 or 20 mg THC; 10 patients; cited from earlier work
[7] = test system: AIDS-associated anorexia and cachexia; conditions: oral 2.5 mg THC once or twice daily increasing to 20 mg daily; 94 patients; 12 months; cited from earlier work
[8] = test system: Pain due to advanced cancer; conditions: 10 and 20 mg THC, 60 and 120 codeine; 34 patients; cited from earlier work
[9] = test system: Nausea and emesis due to Cancer chemotherapy; conditions: oral 5 or 15 mg/m^2 THC four times per day; 53 patients refractory to other antiemetics; cited from earlier work
[10] = test system: Nausea and emesis due to Cancer chemotherapy; conditions: oral THC 15 mg/m^2, cited from earlier work

## CCCCCc1cc(O)c2c(c1)OC(C)(C)[C@@H]1CCC(C)=C[C@@H]21 (relative stereo) [Δ^9 THC, (6aR-trans)-6a,7,8,10a-tetrahydro-6,6,9-trimethyl-3-pentyl-6H-dibenzo[b,d]-pyran-1-ol]
[1]; inhaled, 20 actuations
  concentration at 20 min: 409 ± 86 ng/g
[1]; inhaled, 40 actuations
  concentration at 20 min: 788 ± 273 ng/g
[1]; inhaled, 60 actuations
  concentration at 20 min: 1130 ± 240 ng/g
[1]; iv, 1 mg/kg
  concentration at 20 min: 102 ± 6 ng/g
[1]; iv, 3 mg/kg
  concentration at 20 min: 365 ± 39 ng/g
[1]; iv, 10 mg/kg
  concentration at 20 min: 1320 ± 38 ng/g
[2]
  deterioration/degradation of Δ^9-THC content on storage: no deterioration; also recorded: no significant degradation
[3]
  patients with both objective and subjective improvement: tremor. 2 of 8 patients had
  patients with mild subjective improvement in tremor: 5 of 8 patients had mild
[4]
  side effects: treatment, minimal side
  spasticity compared to placebo treatment: Decrease in spasticity
In vivo; following inhalation, mice
  brain levels relative to blood levels: roughly equivalent; also recorded: equivalent concentrations
In vivo; i.v. administration, mice
  brain levels higher than those found in blood: approximately two to three
In vivo; mouse, brain relative to whole blood, iv
  Kp at 20 min: 2 to 3
In vivo; mouse, inhaled, 20 actuations
  concentration at 20 min: 340 ± 36 ng/g
In vivo; mouse, inhaled, 40 actuations
  concentration at 20 min: 791 ± 94 ng/g
In vivo; mouse, inhaled, 60 actuations
  concentration at 20 min: 890 ± 151 ng/g
In vivo; mouse, iv, 1 mg/kg
  concentration at 20 min: 307 ± 28 ng/g
In vivo; mouse, iv, 3 mg/kg
  concentration at 20 min: 854 ± 42 ng/g
In vivo; mouse, iv, 10 mg/kg
  concentration at 20 min: 3310 ± 190 ng/g
[5]
  antiemetic efficacy compared with prochloperazine: THC more effective than
Intra ocular pressure
  mean decrease of intra ocular pressure: presser by mean of 37%
[6]
  appetite: appetite stimulation,
  mood: elevated mood
  pain: Pain relief
[7]
  appetite compared to controls: improved appetite and only
  weight compared to controls: tended to increase weight
[8]
  analgesic potency compared with codeine: greater potency than
  degree of analgesia compared with codeine: THC produced a similar
[9]
  patients with THC-induced partial or complete blockade of vomiting: 72% of patients exhibited a
[10]; 36 patients refractory to prochlorperazine or thiethylperazine
  patients with reduction in chemotherapy-induced nausea and vomiting: 64% of patients given THC
[10]; 36 patients
  side effects: effects included dysphoria;
